Test results from patent US20050009840A1 (SUGEN, INC., priority 2003, published 2005).

Molecular target: T1, HGFR (Homo sapiens, UniProt P08581)
T1 construct: purchased Upstate 14-526
Experiment: HGFR continuous-coupled spectrophotometric assay
Format: biochemical
Conditions: at 1 pM; Table 6, library procedure 41; read-out: % Inhibition (percent c-MET inhibition)

T1 sequence (P08581 974-1390 limits assumed): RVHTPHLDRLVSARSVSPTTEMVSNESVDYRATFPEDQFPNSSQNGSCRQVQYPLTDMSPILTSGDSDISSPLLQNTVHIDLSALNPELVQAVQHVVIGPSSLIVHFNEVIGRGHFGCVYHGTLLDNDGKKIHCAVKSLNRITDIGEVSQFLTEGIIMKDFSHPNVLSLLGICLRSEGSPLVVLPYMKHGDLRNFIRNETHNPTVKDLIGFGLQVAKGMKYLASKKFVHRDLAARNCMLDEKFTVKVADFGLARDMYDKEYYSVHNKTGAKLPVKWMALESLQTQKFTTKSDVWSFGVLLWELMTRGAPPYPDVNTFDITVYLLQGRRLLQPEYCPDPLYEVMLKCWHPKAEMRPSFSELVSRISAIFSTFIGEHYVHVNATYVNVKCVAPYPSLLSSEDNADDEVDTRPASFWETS

First: CC1CCC(=O)C(NC(=O)c2cnc(N)c(OCc3c(Cl)cccc3Cl)c2)C1 [Example L-260]
Second: Nc1ncc(C(=O)NC2CCCNC2=O)cc1OCc1c(Cl)cccc1Cl [Example L-293]
The inhibition at 1 pM of the first is higher: 40% for the first, 16% for the second.

Going from `Nc1ncc(C(=O)N2CCN(CCCN3CCOCC3)CC2)cc1OCc1c(Cl)cccc1Cl` [Example L-261] to `Nc1ncc(C(=O)N2CCc3nnc(CCN4CCOCC4)n3CC2)cc1OCc1c(Cl)cccc1Cl` [Example L-328], the inhibition at 1 pM falls from 40% to 27%.

Going from `CN(C)C(=O)CN1CCN(C(=O)c2cnc(N)c(OCc3c(Cl)cccc3Cl)c2)CC1` [Example L-262] to `CS(=O)(=O)CCN1CCN(C(=O)c2cnc(N)c(OCc3c(Cl)cccc3Cl)c2)CC1` [Example L-299], the inhibition at 1 pM falls from 42% to 25%.

Going from `Nc1ncc(C(=O)NCCN2CCN(Cc3ccccc3)CC2)cc1OCc1c(Cl)cccc1Cl` [Example L-263] to `Nc1ncc(C(=O)NCC(O)CN2CCC(Cc3ccccc3)CC2)cc1OCc1c(Cl)cccc1Cl` [Example L-276], the inhibition at 1 pM falls from 36% to 32%.

First: Nc1ncc(C(=O)NC[C@H]2CC[C@H](c3nc4ccccc4[nH]3)CC2)cc1OCc1c(Cl)cccc1Cl [Example L-264]
Second: Cc1noc([C@H]2CC[C@H](CNC(=O)c3cnc(N)c(OCc4c(Cl)cccc4Cl)c3)CC2)n1 [Example L-326]
The inhibition at 1 pM of the first is higher: 38% for the first, 3% for the second.

First: Nc1ncc(C(=O)NCc2ccc(C(F)(F)F)nc2)cc1OCc1c(Cl)cccc1Cl [Example L-265]
Second: Nc1ncc(C(=O)NCc2c(F)cccc2C(F)(F)F)cc1OCc1c(Cl)cccc1Cl [Example L-308]
The inhibition at 1 pM of the first is lower: 17% for the first, 33% for the second.

First: CN(C)C(=O)c1cnc(N)c(OCc2c(Cl)cccc2Cl)c1 [Example L-266]
Second: CN(CCS(C)(=O)=O)C(=O)c1cnc(N)c(OCc2c(Cl)cccc2Cl)c1 [Example L-297]
The inhibition at 1 pM of the first is lower: 10% for the first, 26% for the second.

Going from `Nc1ncc(C(=O)N2CCN(c3ccc(Br)cn3)CC2)cc1OCc1c(Cl)cccc1Cl` [Example L-267] to `Nc1ncc(C(=O)N2CCCN(Cc3ccc(F)cc3)CC2)cc1OCc1c(Cl)cccc1Cl` [Example L-277], the inhibition at 1 pM rises from 5% to 26%.

First: Cc1ccc(N2CCN(CCCCNC(=O)c3cnc(N)c(OCc4c(Cl)cccc4Cl)c3)CC2)cc1 [Example L-268]
Second: Nc1ncc(C(=O)NCCc2cccc(O)c2)cc1OCc1c(Cl)cccc1Cl [Example L-273]
The inhibition at 1 pM of the first is lower: 15% for the first, 17% for the second.

First: Nc1ncc(C(=O)N2CCS(=O)(=O)CC2)cc1OCc1c(Cl)cccc1Cl [Example L-269]
Second: Nc1ncc(C(=O)N2CCNC(=O)CC2)cc1OCc1c(Cl)cccc1Cl [Example L-285]
The inhibition at 1 pM of the first is lower: 10% for the first, 31% for the second.

First: C[C@@H]1CCC[C@H](C)N1CCNC(=O)c1cnc(N)c(OCc2c(Cl)cccc2Cl)c1 [Example L-270]
Second: Nc1ncc(C(=O)NCCC2CCOCC2)cc1OCc1c(Cl)cccc1Cl [Example L-298]
The inhibition at 1 pM of the first is lower: 2% for the first, 31% for the second.

Going from `Nc1ncc(C(=O)N[C@@H]2CCC[C@H]2OCc2ccccc2)cc1OCc1c(Cl)cccc1Cl` [Example L-271] to `Nc1ncc(C(=O)NC[C@]2(O)CC[C@H](c3ccccc3)CC2)cc1OCc1c(Cl)cccc1Cl` [Example L-272], the inhibition at 1 pM falls from 16% to 15%.

Compared with `N#CCCN1CCN(C(=O)c2cnc(N)c(OCc3c(Cl)cccc3Cl)c2)CC1` [Example L-274], `CCS(=O)(=O)N1CCN(C(=O)c2cnc(N)c(OCc3c(Cl)cccc3Cl)c2)CC1` [Example L-282] is higher in inhibition at 1 pM: 19% for the first, 22% for the second.

Going from `Nc1ncc(C(=O)NCc2cc3cc[nH]c3cn2)cc1OCc1c(Cl)cccc1Cl` [Example L-275] to `Nc1ncc(C(=O)NCc2ccc[nH]c2=O)cc1OCc1c(Cl)cccc1Cl` [Example L-310], the inhibition at 1 pM falls from 28% to 16%.

Going from `Cc1ccc(F)c(CNC(=O)c2cnc(N)c(OCc3c(Cl)cccc3Cl)c2)c1F` [Example L-278] to `Nc1ncc(C(=O)NCc2c(F)cccc2F)cc1OCc1c(Cl)cccc1Cl` [Example L-279], the inhibition at 1 pM rises from 31% to 32%.

Going from `Nc1ncc(C(=O)N2CCN(CC(=O)Nc3ccccn3)CC2)cc1OCc1c(Cl)cccc1Cl` [Example L-280] to `Nc1ncc(C(=O)N2CCN(Cc3cccc4ccccc34)CC2)cc1OCc1c(Cl)cccc1Cl` [Example L-281], the inhibition at 1 pM falls from 56% to 26%.

Compared with `Nc1ncc(C(=O)N2CCC(N3CCCCC3=O)CC2)cc1OCc1c(Cl)cccc1Cl` [Example L-283], `Nc1ncc(C(=O)N2CCCC(C(=O)N3CCCC3)C2)cc1OCc1c(Cl)cccc1Cl` [Example L-286] is higher in inhibition at 1 pM: 26% for the first, 47% for the second.

Going from `Nc1ncc(C(=O)N2CCC3(CCNC3=O)CC2)cc1OCc1c(Cl)cccc1Cl` [Example L-284] to `Nc1ncc(C(=O)N2CCNC(=O)C2)cc1OCc1c(Cl)cccc1Cl` [Example L-307], the inhibition at 1 pM falls from 27% to 22%.

Compared with `Nc1ncc(C(=O)N2CCCC(C(=O)N3CCOCC3)C2)cc1OCc1c(Cl)cccc1Cl` [Example L-287], `Nc1ncc(C(=O)N2CCC3(CC2)CC3C(=O)N2CCCCC2)cc1OCc1c(Cl)cccc1Cl` [Example L-325] is higher in inhibition at 1 pM: 21% for the first, 26% for the second.

Going from `COCCNC(=O)C1CCCN(C(=O)c2cnc(N)c(OCc3c(Cl)cccc3Cl)c2)C1` [Example L-288] to `COCC1CN(CC(N)=O)CCN(C(=O)c2cnc(N)c(OCc3c(Cl)cccc3Cl)c2)C1` [Example L-331], the inhibition at 1 pM rises from 20% to 23%.

Compared with `CC(C)(O)c1ccc(CNC(=O)c2cnc(N)c(OCc3c(Cl)cccc3Cl)c2)cc1` [Example L-289], `Nc1ncc(C(=O)NCc2ccc(OC(F)F)cc2)cc1OCc1c(Cl)cccc1Cl` [Example L-305] is higher in inhibition at 1 pM: 24% for the first, 26% for the second.

Compared with `Nc1ncc(C(=O)N2CCCC2c2ccncc2)cc1OCc1c(Cl)cccc1Cl` [Example L-290], `Nc1ncc(C(=O)N2CCC(O)(CCc3ccncc3)CC2)cc1OCc1c(Cl)cccc1Cl` [Example L-322] is higher in inhibition at 1 pM: 19% for the first, 25% for the second.

Compared with `Nc1ncc(C(=O)NCCc2nc3ccccc3s2)cc1OCc1c(Cl)cccc1Cl` [Example L-291], `Cc1nc(CCNC(=O)c2cnc(N)c(OCc3c(Cl)cccc3Cl)c2)cs1` [Example L-333] is lower in inhibition at 1 pM: 26% for the first, 23% for the second.

Going from `Nc1ncc(C(=O)NCC2=CSC3=NCCN23)cc1OCc1c(Cl)cccc1Cl` [Example L-292] to `Nc1ncc(C(=O)NCc2ncccc2O)cc1OCc1c(Cl)cccc1Cl` [Example L-303], the inhibition at 1 pM falls from 99% to 24%.

Going from `Cc1cc2cc(CNC(=O)c3cnc(N)c(OCc4c(Cl)cccc4Cl)c3)ccc2[nH]1` [Example L-294] to `CCCCOc1ccc(CNC(=O)c2cnc(N)c(OCc3c(Cl)cccc3Cl)c2)cc1` [Example L-304], the inhibition at 1 pM falls from 20% to 18%.

Going from `CN(C)C(CNC(=O)c1cnc(N)c(OCc2c(Cl)cccc2Cl)c1)c1cccnc1` [Example L-295] to `Nc1ncc(C(=O)NC(CO)c2cccnc2)cc1OCc1c(Cl)cccc1Cl` [Example L-300], the inhibition at 1 pM rises from 18% to 22%.

Compared with `CS(=O)(=O)C1CCN(C(=O)c2cnc(N)c(OCc3c(Cl)cccc3Cl)c2)C1` [Example L-296], `Nc1ncc(C(=O)N2CCCC(F)(F)C2)cc1OCc1c(Cl)cccc1Cl` [Example L-309] is lower in inhibition at 1 pM: 23% for the first, 16% for the second.

First: Nc1ncc(C(=O)N2CCN(CC(=O)N3CCCCC3)CC2)cc1OCc1c(Cl)cccc1Cl [Example L-301]
Second: Nc1ncc(C(=O)N2CCC3(CC2)CC(N2CCC(O)CC2)CO3)cc1OCc1c(Cl)cccc1Cl [Example L-320]
The inhibition at 1 pM of the first is lower: 24% for the first, 28% for the second.

Going from `Nc1ncc(C(=O)N2CCC(Cc3ccc(F)cc3)CC2)cc1OCc1c(Cl)cccc1Cl` [Example L-302] to `NC(=O)c1ccc(CC2CCN(C(=O)c3cnc(N)c(OCc4c(Cl)cccc4Cl)c3)CC2)cc1` [Example L-317], the inhibition at 1 pM falls from 41% to 12%.

Compared with `COc1ccc(C(CCO)NC(=O)c2cnc(N)c(OCc3c(Cl)cccc3Cl)c2)cc1` [Example L-306], `Cc1ccc2c(c1)C(NC(=O)c1cnc(N)c(OCc3c(Cl)cccc3Cl)c1)CCO2` [Example L-311] is lower in inhibition at 1 pM: 22% for the first, 17% for the second.

Compared with `CCN1CCCC(NC(=O)c2cnc(N)c(OCc3c(Cl)cccc3Cl)c2)C1` [Example L-312], `CCC(CC)CN1CCC2(CC1)CC(NC(=O)c1cnc(N)c(OCc3c(Cl)cccc3Cl)c1)CO2` [Example L-330] is higher in inhibition at 1 pM: 19% for the first, 74% for the second.

Compared with `Nc1ncc(C(=O)N2CCC(COCc3ccccc3F)CC2)cc1OCc1c(Cl)cccc1Cl` [Example L-313], `Nc1ncc(C(=O)N2CCC(Cc3cccc(CO)c3)CC2)cc1OCc1c(Cl)cccc1Cl` [Example L-316] is higher in inhibition at 1 pM: 10% for the first, 11% for the second.

Compared with `Nc1ncc(C(=O)NCCC2CCC(=O)N2CCc2ccc(O)cc2)cc1OCc1c(Cl)cccc1Cl` [Example L-314], `CN(CCC1CCC(=O)N1CC(F)(F)F)C(=O)c1cnc(N)c(OCc2c(Cl)cccc2Cl)c1` [Example L-321] is higher in inhibition at 1 pM: 16% for the first, 25% for the second.

Compared with `Nc1ncc(C(=O)N2CCC(Cc3cnccn3)CC2)cc1OCc1c(Cl)cccc1Cl` [Example L-315], `Nc1ncc(C(=O)N2CCCC(Cc3ncccn3)C2)cc1OCc1c(Cl)cccc1Cl` [Example L-324] is lower in inhibition at 1 pM: 72% for the first, 25% for the second.

Compared with `Nc1ncc(C(=O)N2CCC3(CC2)CC(N2CCNC(=O)C2)CO3)cc1OCc1c(Cl)cccc1Cl` [Example L-318], `Nc1ncc(C(=O)NC2COC3(CCN(c4ncccn4)CC3)C2)cc1OCc1c(Cl)cccc1Cl` [Example L-332] is higher in inhibition at 1 pM: 17% for the first, 21% for the second.

Compared with `CCN(CC)CC1(O)CCN(C(=O)c2cnc(N)c(OCc3c(Cl)cccc3Cl)c2)CC1` [Example L-319], `CCCN(CCO)C1CCCN(C(=O)c2cnc(N)c(OCc3c(Cl)cccc3Cl)c2)CC1` [Example L-334] is lower in inhibition at 1 pM: 71% for the first, 17% for the second.

`Nc1ncc(C(=O)NCc2noc(C(=O)N3CCC(CO)CC3)n2)cc1OCc1c(Cl)cccc1Cl` [Example L-323] and `Nc1ncc(C(=O)NCc2noc(C(=O)N3CC[C@H](O)C3)n2)cc1OCc1c(Cl)cccc1Cl` [Example L-327] are the same in inhibition at 1 pM: 26% for the first, 26% for the second.

Work on `C=C(Cl)/C(=C/O)COc1cc(C(=O)NC2COC3(CCN(Cc4[nH]cnc4C)CC3)C2)cnc1N` [Example L-329] yielded an inhibition at 1 pM of 30%.
